Series [1] has as its system rats. Nature of the series: single-dose oral toxicity in rats. As to conditions: single-dose oral administration to rats. It counts as in vivo, rat. As for the experimental part: The compound represented by the formula (I) or a non-toxic salt thereof has markedly low toxicity so that use of it as a pharmaceutical can be considered as safe enough. For example, the minimum lethal dose of the compound represented by the formula (I) by single-dose oral administration to rats was 2000 mg/kg or more.

Series [2] deals with retinal disorders due to transient retinal ischemia. Kind of series: rat model with retinal disorders due to transient retinal ischemia. As to conditions: SD male rats. It counts as in vivo. As for the experimental part:
Effects of the compound represented by the formula (I) (which will hereinafter be called “compound of the present invention”) on a rat model with retinal disorders due to transient retinal ischemia;
The model with retinal disorders due to transient retinal ischemia was prepared in accordance with the method described in Eur. J. Pharmaco., 350, 53-57 (1998).
After rats (SD male rats, 9-week-old (purchased from Charles River Japan, Inc.)) were weighed, pentobarbital sodium (Pentbarbital Na) (50-75 mg/kg) was intraperitoneally administered to anesthetize them. They were fixed to a platform, and kept warm at around 37° C. A perfusate for ophthalmic surgery (“BSS PLUS”; product of Santen Pharmaceutical) was hung so that the height from the position of the eyes of the rats would be 170 cm±5 cm. This height permitted application of pressure of about 130 mmHg. To the perfusate bottle was connected an extension tube and an injection needle (27 gauge×¾ inch) was attached to another end of the tube. […]
After the eyeballs were immobilized in a Davidson's fixative and a paraffin section was prepared at the cross-section passing through the optic papilla, it was dyed with hematoxylin and eosin (H.E.). […] The number of granule cells (GCL (ganglion cell layer), cell/mm) per 1 mm width of the optic papilla was counted by optical microscopic examination. […]

Turning to `CC(C)(C)OC(=O)N1CSC[C@H]1C(=O)N[C@@H](CSCC1CCCCC1)C(=O)NC1CCN(Cc2ccccc2)CC1` [Compound of the present invention, (2R)-N-(1-Benzylpiperidin-4-yl)-3-cyclohexylmethylthio-2-((4R)-3-t-butoxycarbonylthiazolidin-4-ylcarbonylamino)propanamide], in series [1], the minimum lethal dose is reported as at least 2000 mg/kg. Besides, the “The number of granule cells (GCL)” value in series [2] (100 mg/5 mL/kg oral one hour before 45 min ischemia, counted one week after ischemia, per 1 mm width of the optic papilla) worked out at 49.2 cell/mm. For the same compound, the “inhibiting activity to the model of retinal disorders due to transient retinal ischemia” value in series [2] (100 mg/kg oral one hour before ischemia, from granule cell counts of Table 1) amounted to 34%.

Source of the values: US20040067891A1, “Therapeutic and/or preventive agents for diseases due to retinal ischemia” (priority 2000, published 2004).
